Assay results published in patent publication US10188666B2, “Dendrogenin A and antineoplastic agents for the treatment of chemosensitive or chemoresistant tumors” (priority 2013, dated 2019).
pIC50: −log10 of the molar value. Where two headings read alike, the source gives them in different places.

Tests used:
[1] = tested on: KG1 cells; experiment: MTT cell viability assay, KG1 cells; format: cell-based; settings: 48 hours
Method: (§1) Briefly, effect of drugs alone and in combinations were determined for a 3-5 log scale of concentrations of drugs and with a constant ratio between the two drugs used for co-treatment. Cells were seeded in 96-well plates (50 000 cell/well). Cells were treated just after seeding, for 48 hours. Cell viability was determined with MTT assay. Cells were centrifuged 5 minutes at 1200 rpm, medium removed, 100 μl of MTT solution (1 mg/ml in PBS) added, incubated for 2 hours at 37° C., centrifuged, MTT solution removed and DMSO (100 μl) added to dissolve purple formazan formed by living cells. Absorbance of the solution was determined at 540 nm.
(§2) HL60, KG1, KG1a and MV4-11 cells were seeded in 96-well plates (50 000 cells/well). Cells were treated just after seeding with increasing doses of daunorubicin, for 48 hours. Cell viability was determined with MTT assay as follows: cells were centrifuged 5 minutes at 1200 rpm, medium removed, 100 μl of MTT solution (1 mg/ml in PBS) added, incubated for 2 hours at 37° C., centrifuged, MTT solution removed and DMSO (100 μl) added to dissolve purple formazan formed by living cells. Absorbance of the solution was determined at 540 nm.
(§3) HL60, KG1, KG1a and MV4-11 cells were seeded in 96-well plates (50 000 cells/well). Cells were treated just after seeding with increasing doses of cytarabine, for 48 hours.
(§4) HL60, KG1, KG1a and MV4-11 cells were seeded in 96-well plates (50 000 cells/well).
(§5) HL60, KG1, KG1a and MV4-11 cells were seeded in 96-well plates (50 000 cells/well). Cells were treated just after seeding with increasing doses of cisplatin, for 48 hours.
(§6) HL60, KG1, KG1a and MV4-11 cells were seeded in 96-well plates (50 000 cells/well). Cells were treated just after seeding with increasing doses of Dendrogenin A, for 48 hours.
(§7) KG1 cells were seeded in 96-well plates (50 000 cells/well).
as §7, §7
KG1 cells were seeded in 96-well plates (50 000 cells/well). Cells were treated just after seeding with increasing doses of Dendrogenin A and Cisplatin, for 48 hours.
as §7
KG1 cells were seeded in 96-well plates (50 000 cells/well). Cells were treated just after seeding with increasing doses of Dendrogenin A and arsenic trioxide, for 48 hours.
as §7

[2] = tested on: KG1a cells; experiment: MTT cell viability assay, KG1a cells; format: cell-based; settings: for sensitivity of KG1a cells compared to KG1 cells (cell viability, in words): single agent
Method: as §1, §2, §3, §4, §5, §6
(§8) KG1a cells were seeded in 96-well plates (50 000 cells/well).
as §8
KG1a cells were seeded in 96-well plates (50 000 cells/well). […]

[3] = tested on: MV4-11 cells; experiment: MTT cell viability assay, MV4-11 cells; format: cell-based; settings: for sensitivity of MV4-11 cells (cell viability, in words): single agent
Method: as §1, §2, §3, §4, §5, §6
(§9) MV4-11 cells were seeded in 96-well plates (50 000 cells/well).
as §9

[4] = tested on: HL60 cells; experiment: MTT cell viability assay, HL60 cells; format: cell-based
Method: as §1, §2, §3, §4, §5, §6
(§10) HL60 cells were seeded in 96-well plates (50 000 cells/well).
HL60 cells were seeded in 96-well plates (50 000 cells/well). Cells were treated just after seeding with increasing doses of Dendrogenin A and Cisplatin, for 48 hours.
as §10
HL60 cells were seeded in 96-well plates (50 000 cells/well). Cells were treated just after seeding with increasing doses of Dendrogenin A and arsenic trioxide, for 48 hours.
as §10

[5] = tested on: chemoresistant cancer cell line KG1a; experiment: Cell death induction, Trypan blue counting, KG1a cells; format: cell-based; settings: 48 hours; for cell death induction by the antineoplastic agent alone: KG1a, Daunorubicin 0.5 μM or cytarabine 1 μM
Method: In a 6-microwell plate was seeded 0.5·10^6 cells of KG1a cell line. The same day, Solvant vehicule or different concentrations of Dendrogenin A (final concentrations: 5 and 10 μM) alone or in combination with Daunorubicin (final concentration: 0.5 μM) or cytarabine (final concentration: 1 μM) were added into the well. After 48 hours of incubation, the cells suspensions were centrifuged and cell pellets were resuspended in the Trypan blue solution (0.25% (w/v) in PBS) and counted in a Malassez cell under a light microscope.

[6] = tested on: drug sensitive cancer cell line KG1; experiment: Cytotoxic activity, Trypan blue counting, KG1 cells; settings: for cytotoxic activity of the antineoplastic agent alone: KG1, Daunorubicin 0.05-0.5 μM or cytarabine 0.1-1 μM, 48 hours
Method: In a 6-microwell plate was seeded 0.5.10^6 cells of KG1 cell line. […] Then, Daunorubicin (final concentration: 0.05, 0.1, 0.25 and 0.5 μM) or cytarabine (final concentration: 0.1, 0.2, 0.5 and 1 μM) were added to […]. After the cells were cultured for additional 48 hours, culture suspensions were centrifuged and cell pellets were resuspended in the Trypan blue solution (0.25% (w/v) in PBS) and counted in a Malassez cell under a light microscope.

[7] = tested on: AML patient cells; experiment: Cell death of AML patient samples, Annexin V-FitC/7-AAD flow cytometry; format: cell-based; settings: Dendrogenin A 5 μM alone, 48 hours
Method: In a 6-microwell plate were seeded 0.5.10^6 patient cells. The same day, Solvant vehicle or different concentrations of Dendrogenin A (final concentrations: 5 μM) alone or in combination with Daunorubicin (final concentration: 10 nM) were added into the well. After 48 hours of incubation, the cells suspensions were centrifuged and washed with PBS and cell pellets were resuspended in a labeling solution containing Annexin V-FitC and 7-AAD as described in the kit protocol (Annexin V-FitC/7-AAD staining kit, Roche Applied Science). Cells were then incubated for 15 minutes at room temperature in the dark and analyzed by Facs Flow cytometry.

[8] = target: cholesterol epoxide hydrolase (Homo sapiens, UniProt Q15125); settings: de Medina et al., Nature Communications, 2013; cited from earlier work
Chain of cholesterol epoxide hydrolase (Q15125 whole entry): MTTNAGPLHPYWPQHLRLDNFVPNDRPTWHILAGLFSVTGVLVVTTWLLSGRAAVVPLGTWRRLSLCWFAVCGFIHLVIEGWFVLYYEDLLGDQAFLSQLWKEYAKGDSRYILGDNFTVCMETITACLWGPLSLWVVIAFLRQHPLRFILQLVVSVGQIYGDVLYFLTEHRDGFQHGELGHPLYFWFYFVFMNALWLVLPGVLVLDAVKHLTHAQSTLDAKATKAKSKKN

[9] = Homo sapiens, KG-1, KG1 cell line
[10] = Homo sapiens, KG-1a, KG1a cell line, 48 hours, MTT, read-out: IC 50

SMILES | pIC50 [1, 9] | sensitivity of KG1a cells compared to KG1 cells (cell viability, in words) ([2]; 48 hours, MTT) | pIC50 ([3]; Homo sapiens, MV4-11, 48 h) | sensitivity of MV4-11 cells (cell viability, in words) ([3]; 48 hours, MTT) | pIC50 ([4]; Homo sapiens, HL-60, 48 h) | sensitivity of HL60 cells (cell viability, in words) ([4]; single agent, 48 hours, MTT) | sensitivity of HL60 cells (cell viability, in words) [4] | cell death induction by the antineoplastic agent alone [5] | pIC50 [2, 10] | cytotoxic activity of the antineoplastic agent alone [6] | further results
O=c1[nH]cc(F)c(=O)[nH]1 [5-Fluorouracil] | 3.12 | resistant | 2.67 | more resistant to 5-FU compared to Daunorubicin or Cytarabine | 2.61 | more resistant to 5-FU compared to Daunorubicin or Cytarabine | – | – | – | – | pIC50 ([2]; Homo sapiens, KG-1a, 48 h, heading: IC 50, KG1a cell line, 48 hours, MTT, read-out: IC 50): 5.40
N.N.[Cl][Pt][Cl] [Cisplatin] | – | resistant | – | more resistant to Cisplatin compared to Daunorubicin or Cytarabine | – | – | as sensible to Cisplatin as to Daunorubicin and Cytarabine | – | – | – | pIC50 ([1]; KG1 cell line): 5.48; pIC50 ([2]; KG1a cell line, 48 hours, MTT, read-out: IC 50): 5.02; pIC50 ([3]; MV4-11 cell line, 48 hours, MTT, read-out: IC 50): 5.14; pIC50 ([4]; read-out: IC 50): 5.48
Nc1ccn([C@@H]2O[C@H](CO)[C@@H](O)[C@@H]2O)c(=O)n1 [Cytarabine] | 6.47 | resistant | 6.74 | more sensitive than KG1 cells | 6.80 | more sensitive than KG1 cells | – | resistant | 5.82 | sensitive | –
COc1cccc2c1C(=O)c1c(O)c3c(c(O)c1C2=O)C[C@@](O)(C(C)=O)C[C@@H]3O[C@H]1C[C@H](N)[C@H](O)[C@H](C)O1 [Daunorubicin] | 7.19 | resistant | 7.17 | as sensitive as KG1 cells | 7.21 | – | as sensitive as KG1 cells | resistant | – | sensitive | pIC50 ([2]; Homo sapiens, KG-1a, 48 h): 5.97
CC(C)CCC[C@@H](C)[C@H]1CC[C@H]2[C@@H]3C[C@@H](NCCc4cnc[nH]4)[C@@]4(O)C[C@@H](O)CC[C@]4(C)[C@H]3CC[C@]12C [Dendrogenin A, 5α-hydroxy-6β-[2-(1H-imidazol-4-yl)ethylamino]cholestan-3β-ol] | 5.05 | as sensitive as KG1 cells | – | as sensitive as KG1 or KG1a cells | – | as sensitive as KG1 or KG1a cells | – | – | 4.88 | – | effect on resistance of KG1a cells to Daunorubicin ([5]; Dendrogenin A 5 and 10 μM with Daunorubicin 0.5 μM): able to abolish this resistance; effect on resistance of KG1a cells to Cytarabine ([5]; Dendrogenin A 5 and 10 μM with cytarabine 1 μM): able to abolish this resistance; pIC50 ([3]; Homo sapiens, MV4-11 cell line, 48 hours, MTT, read-out: IC 50): 5.14; cell death rate of tumor cells resistant to Daunorubicin [7]: high or moderate cell death rate; effect on sensibility of KG1 cells to Daunorubicin ([6]; Dendrogenin A 2.5 μM for 24 hours, then Daunorubicin 0.05-0.5 μM for 48 hours): able to increase this sensibility; effect on sensibility of KG1 cells to Cytarabine ([6]; Dendrogenin A 2.5 μM for 24 hours, then cytarabine 0.1-1 μM for 48 hours): able to increase this sensibility; pIC50 ([4]; Homo sapiens, HL-60, HL60 cell line, 48 hours, MTT, read-out: IC 50): 5.09; inhibition of cholesterol epoxide hydrolase [8]: selective inhibitor
